Laboratory results reported in patent publication US5827837A, “Polyanion anti-inflammatory agents” (priority 1996, dated 1998).
“Also recorded” adds a separate entry of the source. Like-named read-outs stand apart in the source and are kept apart here. Blank lines part the entries; values can stand above or below the compound they belong to.

Tests used:
L-selectin [1] = details: cited from earlier work
P-selectin [2] = details: cited from earlier work
[3] = target: T1, L-selectin-lg fusion protein (Homo sapiens, UniProt P14151); assay: Competition ELISA: binding of L-selectin-Ig to immobilized BSA-sLe^x
T1 construct: Each selectin-lg contains the lectin domain, epidermal growth factor domain, and one (L-selectin-lg), two (P-selectin-lg) or six (E-selectin-lg) complement regulatory repeats; made in house
Excerpt: Selectin-lg fusion proteins are recombinant chimeric molecules containing extracellular regions of selectins coupled to the hinge, CH2, and CH3 regions of human IgG1 (Aruffo, A., et al., Cell, 67:35, 1991; Walz, G., et al., Science, 250:1132, 1990). Each selectin-lg contains the lectin domain, epidermal growth factor domain, and one (L-selectin-lg), two (P-selectin-lg) or six (E-selectin-lg) complement regulatory repeats of the parent molecules. DNAs encoding selectin-Ig inserted in pCDM7 allowed transient expression of recombinant proteins in COS cells as previously described (Seed, B., et al., Proc. Natl. Acad. Sci., U.S.A., 84:3365, 1987; Aruffo, A., Current Protocols In Molecular Biology, eds. Ausubel, F. M., et al, 16:13.1, Greene Publishing Associates and Wiley-lnterscience, New York, N.Y., 1992). These DNAs were also ligated into pNUT (Palmiter, R. D., et al, Cell, 50:435, 1987) for amplification and stable expression in BHK cells. The fusion proteins were affinity purified from culture media using protein A (Pierce Chemical Company, Rockford, Ill.) or protein G (Pharmacia, Piscataway, N.J.) Sepharose, as previously described (Aruffo, A., et al., Cell, 67:35, 1991; Aruffo, A., Current Protocols In Molecular Biology, eds. Ausubel, F. M., et al, supra, 1992). Competition binding ELISAs using P- and E-selectin-lg were performed essentially as described (Nelson, R. M., et al., J. Clin. […] Selectin concentrations were from 10 to 30 nM. […] To increase L-selectin binding, an assay similar to that previously described was used (Foxall, C., et al., J. Cell Biol., 117:895, 1992), in which the L-selectin-lg (10-20 nM) was allowed to form aggregates with HRP-conjugated anti-lg antibody for 30 minutes prior to addition of inositols and incubation on the BSA-sLe^x -coated plate. IC50 values were calculated by fitting binding data to the equation: fraction of maximal binding=IC50 […] using nonlinear least squares analysis software (Origin, Microcal Inc, Northampton, Mass.). InsP6 (dodecasodium salt), InsS6 (hexapotassium salt), myo-inositol 1 monophosphate (cyclohexylammonium salt), and myo-inositol were from Sigma Chemical Company (St. Louis, Mo.). Stock solutions were prepared daily in 0.9% NaCl and sterilized by 0.22 μm filtration. InsP6 solutions were adjusted at pH 7.4 with HCl.
(§1) L-, P-, or E-selectin-lg fusion proteins were incubated for 2-3 hours on microtiter plates coated with the neoglycoprotein BSA-sLe^x, the plates washed, and bound selectin-lg was detected using a peroxidase-conjugated antibody directed against the lg portion and a chromogenic substrate. To determine blocking activity, solution-phase lnsP6 (.circle-solid.), InsS6 (.largecircle.), or inositol (.box-solid.) at the indicated concentrations were added to the solutions containing selectin-Ig fusion proteins prior to transfer to microtiter plates (competition ELISA).

[4] = target: T2, P-selectin-lg fusion protein (Homo sapiens, UniProt P16109); assay: Competition ELISA: binding of P-selectin-Ig to immobilized BSA-sLe^x
T2 construct: Each selectin-lg contains the lectin domain, epidermal growth factor domain, and one (L-selectin-lg), two (P-selectin-lg) or six (E-selectin-lg) complement regulatory repeats; made in house
Excerpt: (§2) Selectin-lg fusion proteins are recombinant chimeric molecules containing extracellular regions of selectins coupled to the hinge, CH2, and CH3 regions of human IgG1 (Aruffo, A., et al., Cell, 67:35, 1991; Walz, G., et al., Science, 250:1132, 1990). Each selectin-lg contains the lectin domain, epidermal growth factor domain, and one (L-selectin-lg), two (P-selectin-lg) or six (E-selectin-lg) complement regulatory repeats of the parent molecules. DNAs encoding selectin-Ig inserted in pCDM7 allowed transient expression of recombinant proteins in COS cells as previously described (Seed, B., et al., Proc. Natl. Acad. Sci., U.S.A., 84:3365, 1987; Aruffo, A., Current Protocols In Molecular Biology, eds. Ausubel, F. M., et al, 16:13.1, Greene Publishing Associates and Wiley-lnterscience, New York, N.Y., 1992). These DNAs were also ligated into pNUT (Palmiter, R. D., et al, Cell, 50:435, 1987) for amplification and stable expression in BHK cells. The fusion proteins were affinity purified from culture media using protein A (Pierce Chemical Company, Rockford, Ill.) or protein G (Pharmacia, Piscataway, N.J.) Sepharose, as previously described (Aruffo, A., et al., Cell, 67:35, 1991; Aruffo, A., Current Protocols In Molecular Biology, eds. Ausubel, F. M., et al, supra, 1992). Competition binding ELISAs using P- and E-selectin-lg were performed essentially as described (Nelson, R. M., et al., J. Clin. Invest., 91:1157, 1993), except that the assay buffer was 20 mM HEPES pH 7.4, 150 mM NaCl, 2 mM CaCl2, and 0.25 mM thimerosal, containing 10 mg/ml BSA, protease-free, (Miles Inc., Kankakee, Ill.). Selectin concentrations were from 10 to 30 nM. […] To increase L-selectin binding, an assay similar to that previously described was used (Foxall, C., et al., J. Cell Biol., 117:895, 1992), in which the L-selectin-lg (10-20 nM) was allowed to form aggregates with HRP-conjugated anti-lg antibody for 30 minutes prior to addition of inositols and incubation on the BSA-sLe^x -coated plate. IC50 values were calculated by fitting binding data to the equation: fraction of maximal binding=IC50 […] using nonlinear least squares analysis software (Origin, Microcal Inc, Northampton, Mass.). InsP6 (dodecasodium salt), InsS6 (hexapotassium salt), myo-inositol 1 monophosphate (cyclohexylammonium salt), and myo-inositol were from Sigma Chemical Company (St. Louis, Mo.). Stock solutions were prepared daily in 0.9% NaCl and sterilized by 0.22 μm filtration. InsP6 solutions were adjusted at pH 7.4 with HCl.
as §1

[5] = target: T3, E-selectin-lg fusion protein (Homo sapiens, UniProt P16581); assay: Competition ELISA: binding of E-selectin-Ig to immobilized BSA-sLe^x
T3 construct: Each selectin-lg contains the lectin domain, epidermal growth factor domain, and one (L-selectin-lg), two (P-selectin-lg) or six (E-selectin-lg) complement regulatory repeats; made in house
Excerpt: as §2, §1

L-selectin [6] = details: cited from earlier work; remark: listed apart in the source
P-selectin [7] = details: cited from earlier work; remark: listed apart in the source
[8] = system: PMN within the peritoneal cavity; assay: Thioglycollate-induced peritoneal inflammation, PMN accumulation; assay type: in vivo, mice (Balb/c); details: mice, 80 μmol/kg in two i.v. injections, 2 experiments
hemoglobin = details: avian erythrocytes; cited from earlier work
inflammation = details: rodent model; cited from earlier work
[9] = chelator concentration above 1 mM
[10] = up to a concentration of 1 mM in assay buffer

Compound: heparin
- L-selectin interaction / dependent adhesion (L-selectin [1]): interact with both P- and L-selectin
- P-selectin interaction / dependent adhesion (P-selectin [2]): interact with both P- and L-selectin

Compound: O=P(O)(O)O[C@@H]1[C@@H](O)[C@H](OP(=O)(O)O)[C@@H](OP(=O)(O)O)[C@H](O)[C@@H]1O [L-isomer of Ins1,4,5 P3]
- inhibition of L-selectin-Ig binding ([3]; preliminary competition ELISA, up to 700 μM): no inhibition at concentrations up to 700 μM

Compound: O=C(O)CN(CCN(CC(=O)O)CC(=O)O)CC(=O)O [EDTA, reference compound]
- inhibition profile, L-selectin [3, 9]: same inhibition profile on all three selectins
- blocking of L-selectin with chelator [3, 10]: no blocking of any selectin up to a concentration of 1 mM
- inhibition profile, P-selectin [4, 9]: same inhibition profile on all three selectins
- blocking of P-selectin with chelator [4, 10]: no blocking of any selectin up to a concentration of 1 mM
- inhibition profile, E-selectin [5, 9]: same inhibition profile on all three selectins
- blocking of E-selectin with chelator [5, 10]: no blocking of any selectin up to a concentration of 1 mM
- effect of calcium chelator on L-selectin interaction with sulfatides (L-selectin [6]): largely unaffected
- effect of calcium chelator on P-selectin interaction with sulfatides (P-selectin [7]): largely unaffected

- IC50 ([5]; BSA-sLe^x competition ELISA, solution-phase sLe^x): 510 ± 60 µM
Compound: CC(=O)N[C@H]1[C@H]([C@H](O)[C@H](O)CO)O[C@@](O[C@H]2[C@@H](O)[C@@H](CO)O[C@@H](O[C@H]3[C@H](O[C@@H]4O[C@@H](C)[C@@H](O)[C@@H](O)[C@@H]4O)[C@@H](NC(C)=O)C(O)O[C@@H]3CO)[C@@H]2O)(C(=O)O)C[C@@H]1O (some centres unmarked) [sLe^x, Neu5Acα2-3Galβ1-4(Fucα1-3)GIcNAc, reference compound]
- blocking of L-selectin-Ig binding ([3]; BSA-sLe^x competition ELISA): failed to block L-selectin binding at concentrations up to 1 mM

Compound: fucoidan
- L-selectin interaction / dependent adhesion (L-selectin [1]): L-selectin adhesion can be blocked; also recorded: interact with both P- and L-selectin
- P-selectin interaction / dependent adhesion (P-selectin [2]): interact with both P- and L-selectin

- IC50 ([3]; selected assays, in vitro, read-out: IC50, blocking activity against L-selectin): 38 ± 17 µM
- IC50 ([4]; selected assays, in vitro, read-out: IC50, blocking activity against P-selectin): 940 ± 130 µM
Compound: O=P(O)(O)O[C@@H]1[C@@H](OP(=O)(O)O)[C@H](OP(=O)(O)O)[C@H](O)[C@H](OP(=O)(O)O)[C@H]1OP(=O)(O)O [InsP5, inositol pentakisphosphate]
- reduced peritoneal influx of PMN (inhibition) [8]: 48±6%
- effect on hemoglobin affinity for oxygen (hemoglobin): increasing its affinity for oxygen

- IC50 ([3]; preliminary competition ELISA, single experiment, read-out: IC50, L-selectin-Ig): 230 ± 90 µM
Compound: O=P(O)(O)O[C@@H]1[C@@H](O)[C@@H](O)[C@@H](OP(=O)(O)O)[C@H](OP(=O)(O)O)[C@H]1O (relative stereo) [D, L-isomer mixture of Ins1,4,6 P3]

Compound: O=P(O)(O)O[C@@H]1[C@H](OP(=O)(O)O)[C@H](O)[C@@H](O)[C@H](O)[C@H]1OP(=O)(O)O [1,2,6-triphosphate (IP3), 1,2,6-triphosphate]
- inhibition of inflammation (inflammation): modestly inhibit inflammation

- activity against L-selectin ([3]; selected assays, in vitro): no activity
- activity against P-selectin ([4]; selected assays, in vitro): no activity
Compound: O=P(O)(O)OC1[C@H](O)[C@H](O)C(O)[C@H](O)[C@H]1O (some centres unmarked) [InsP1, myo-inositol 1 monophosphate, reference compound]
